# Measurements from ChEMBL document CHEMBL4622980, “Peptide Inhibitors of Bacterial Protein Synthesis with Broad Spectrum and SbmA-Independent Bactericidal Activity against Clinical Pathogens” (J Med Chem, 2020).
# The source made the active and inactive calls. The calls are words filed in the database; no cut-off is given here.
# Key:
# Escherichia coli [1] = test: Induction of membrane permeabilization in Escherichia coli BW25113 at 1 uM incubated for 30 mins by ONPG/beta-galactosidase assay; assay type: functional, organism-based
# Escherichia coli [2] = test: Antibacterial activity against Escherichia coli ATCC 25922 assessed as prevention visible bacterial growth incubated for 18 hrs; assay type: functional; conditions: ATCC 25922, 18 h
# Escherichia coli [3] = test: Antibacterial activity against Escherichia coli BW25113 assessed as prevention visible bacterial growth incubated for 18 hrs; assay type: functional; conditions: BW25113, 18 h
# Escherichia coli [4] = test: Antibacterial activity against Escherichia coli ATCC 25922 assessed as prevention visible bacterial growth incubated for 18 hrs in presence of 10% (v/v) human serum in full MH medium; assay type: functional; conditions: ATCC 25922, 18 h
# [5] = Cytotoxicity in human MEC1 cells assessed as reduction in cell viability incubated for 20 hrs by MTT assay; assay type: cell-based
# Escherichia coli [6] = test: Antibacterial activity against Escherichia coli BW25113 expressing delta sbmA mutation assessed as prevention visible bacterial growth incubated for 18 hrs; assay type: functional; conditions: BW25113, 18 h
# Klebsiella pneumoniae [7] = test: Antibacterial activity against Klebsiella pneumoniae 700603 assessed as prevention visible bacterial growth incubated for 18 hrs; assay type: functional; conditions: Klebsiella pneumoniae, 700603, 18 h
# Acinetobacter baumannii [8] = test: Antibacterial activity against Acinetobacter baumannii ATCC 19606 assessed as prevention visible bacterial growth incubated for 18 hrs; assay type: functional; conditions: ATCC 19606 = CIP 70.34 = JCM 6841, 18 h
# Pseudomonas aeruginosa [9] = test: Antibacterial activity against Pseudomonas aeruginosa ATCC 27853 assessed as prevention visible bacterial growth incubated for 18 hrs; assay type: functional; conditions: ATCC 27853, 18 h
# Staphylococcus aureus [10] = test: Antibacterial activity against Staphylococcus aureus ATCC 25923 assessed as prevention visible bacterial growth incubated for 18 hrs; assay type: functional; conditions: ATCC 25923, 18 h
# Escherichia coli [11] = test: Bactericidal activity against Escherichia coli BW25113 assessed as prevention visible bacterial growth incubated for 18 hrs; assay type: functional; conditions: BW25113, 18 h
# Escherichia coli [12] = test: Bactericidal activity against Escherichia coli BW25113 expressing delta sbmA mutation assessed as prevention visible bacterial growth incubated for 18 hrs; assay type: functional; conditions: BW25113, 18 h
# Escherichia coli [13] = test: Bactericidal activity against Escherichia coli ATCC 25922 assessed as prevention visible bacterial growth incubated for 18 hrs; assay type: functional; conditions: ATCC 25922, 18 h
# Klebsiella pneumoniae [14] = test: Bactericidal activity against Klebsiella pneumoniae 700603 assessed as prevention visible bacterial growth incubated for 18 hrs; assay type: functional; conditions: Klebsiella pneumoniae, 700603, 18 h
# Acinetobacter baumannii [15] = test: Bactericidal activity against Acinetobacter baumannii ATCC 19606 assessed as prevention visible bacterial growth incubated for 18 hrs; assay type: functional; conditions: ATCC 19606 = CIP 70.34 = JCM 6841, 18 h
# Pseudomonas aeruginosa [16] = test: Bactericidal activity against Pseudomonas aeruginosa ATCC 27853 assessed as prevention visible bacterial growth incubated for 18 hrs; assay type: functional; conditions: ATCC 27853, 18 h
# Staphylococcus aureus [17] = test: Bactericidal activity against Staphylococcus aureus ATCC 25923 assessed as prevention visible bacterial growth incubated for 18 hrs; assay type: functional; conditions: ATCC 25923, 18 h
# Escherichia coli [18] = test: Antibacterial activity against Escherichia coli clinical isolates assessed as prevention visible bacterial growth incubated for 18 hrs; assay type: functional
# Escherichia coli [19] = test: Ratio of MIC for antibacterial activity against Escherichia coli BW25113 expressing delta sbmA mutation to MIC for antibacterial activity against wild type Escherichia coli BW25113; assay type: functional
# Escherichia coli [20] = test: Ratio of MBC for antibacterial activity against Escherichia coli BW25113 expressing delta sbmA mutation to MBC for antibacterial activity against wild type Escherichia coli BW25113; assay type: functional
# Escherichia coli [21] = test: Induction of membrane permeabilization in Escherichia coli BW25113 at 1 to 16 uM incubated for 30 mins by propidium iodide uptake based flow cytometry; assay type: functional, organism-based
# Escherichia coli [22] = test: Induction of membrane permeabilization in Escherichia coli BW25113 at 1 to 16 uM incubated for 30 mins by ONPG/beta-galactosidase assay; assay type: functional, organism-based
# Escherichia coli [23] = test: Induction of membrane permeabilization in Escherichia coli BW25113 at 1 to 2 uM incubated for 30 mins by ONPG/beta-galactosidase assay; assay type: functional, organism-based
# Escherichia coli [24] = test: Inhibition of in-vitro transcription/translation in Escherichia coli lysates at 1 uM incubated for 1 hr by luciferase reporter gene assay relative to control; assay type: functional
# Escherichia coli [25] = test: Induction of membrane permeabilization in Escherichia coli BW25113 at 8 to 16 uM incubated for 30 mins by propidium iodide uptake based flow cytometry; assay type: functional, organism-based
# Escherichia coli [26] = test: Induction of membrane permeabilization in Escherichia coli BW25113 at 8 to 16 uM incubated for 30 mins by ONPG/beta-galactosidase assay; assay type: functional, organism-based
# Escherichia coli [27] = test: Induction of membrane permeabilization in Escherichia coli BW25113 at 16 uM incubated for 30 mins by ONPG/beta-galactosidase assay relative to 1 uM colistin; assay type: functional
# Escherichia coli [28] = test: Antibacterial activity against Escherichia coli isolate EURL-VTEC C07 assessed as prevention visible bacterial growth incubated for 18 hrs; assay type: functional; conditions: isolate EURL-VTEC C07, 18 h
# Escherichia coli [29] = test: Induction of membrane permeabilization in Escherichia coli BW25113 at 4 uM incubated for 30 mins by propidium iodide uptake based flow cytometry; assay type: functional, organism-based
# Escherichia coli [30] = test: Induction of membrane permeabilization in Escherichia coli BW25113 at 4 uM incubated for 30 mins by ONPG/beta-galactosidase assay; assay type: functional, organism-based
Substance,MIC99 (Escherichia coli [2]) [µM],MIC99 (Escherichia coli [3]) [µM],MIC (Escherichia coli [4]) [µM],CC50 at 20 h [5] [µM],MIC99 (Escherichia coli [6]) [µM],MIC99 (Klebsiella pneumoniae [7]) [µM],MIC99 (Acinetobacter baumannii [8]) [µM],MIC99 (Pseudomonas aeruginosa [9]) [µM],MIC99 (Staphylococcus aureus [10]) [µM],MBC (Escherichia coli [11]) [µM],MBC (Escherichia coli [12]) [µM],MBC (Escherichia coli [13]) [µM],MBC (Klebsiella pneumoniae [14]) [µM],MBC (Acinetobacter baumannii [15]) [µM],MBC (Pseudomonas aeruginosa [16]) [µM],MBC (Staphylococcus aureus [17]) [µM],MIC99 (Escherichia coli [18]) [µM],Ratio (Escherichia coli [19]),Activity (Escherichia coli [23]),inhibition (Escherichia coli [24]),further results
COLISTIN,,,,,,,,,,,,,,,,,,,,,Activity (Escherichia coli [1]): Active
H-RRIRPRPPRLPRPRWR-OH,1,1 to 4,1.5,> 64,4,2,12,> 64,> 64,8,16,2,16,24,32,> 64,> 1,2 - 4,inactive,Active,Ratio (Escherichia coli [20]): 2 - 4; Activity (Escherichia coli [21]): inactive; Activity (Escherichia coli [22]): inactive
H-WRIRPRPPRLPRPRPR-OH,1,1 to 2,1,> 64,12,16,32,> 64,> 64,1,32,2,64,64,> 64,> 64,> 1,,inactive,Active,Activity (Escherichia coli [21]): inactive; Activity (Escherichia coli [22]): inactive
H-WRIRRRPPRLPRPRWR-OH,1,1,6,> 64,3,4,32,64,32,8,4,2,32,32,64,> 64,> 1,2 - 4,inactive,Active,Ratio (Escherichia coli [20]): 2 - 4; Activity (Escherichia coli [25]): Active; Activity (Escherichia coli [26]): Active; Activity (Escherichia coli [27]): 30%
H-WRIRRRWPRLPRPRWR-OH,1,2,3,> 64,4,2,4,32,12,4,4,2,8,8,> 64,> 64,> 1,2 - 4,inactive,Active,MIC99 (Escherichia coli [28]): 2 µM; Ratio (Escherichia coli [20]): 2 - 4; Activity (Escherichia coli [25]): Active; Activity (Escherichia coli [29]): Active; Activity (Escherichia coli [26]): Active; Activity (Escherichia coli [30]): Active; Activity (Escherichia coli [27]): 30%
